Experimental findings from patent US11447504B2, “Macrocyclic chlorine substituted indole derivatives” (Bayer Aktiengesellschaft, priority 2017, dated 2022) are described below.

Where a name gives a salt, the structure may show the parent alone. Read-outs that look alike come from different tables or passages of the source.

For one data set, the target named is MCL-1 (Homo sapiens (Human), UniProt Q07820, K194A/K197A/R201A). The experiment in a line: Protein-protein interaction assay MCL-1/Noxa BH3 peptide (MCL-1 Assay, TR-FRET). The data set is classed as binding. The following applies: read-out: MCL-1 Assay IC50 (median). The procedure: The dose-dependent inhibition by the compounds described in this invention of the interaction between MCL-1 and the BH3 domain of Noxa (both human) was determined using a steady state binding competition assay with time-resolved fluorescence energy transfer (TR-FRET) readout. […] The MBP-MCL-1 was purchased from Beryllium (Bedford, Mass., USA). The expression and purification of this protein construct has been described elsewhere (DOI:10.1371/journal.pone.0125010). The Noxa BH3-derived peptide can be obtained from e.g. Biosyntan (Berlin, Germany).
Chain of MCL-1 (Q07820 whole entry K194A/K197A/R201A, looked up, the tested form may be a part): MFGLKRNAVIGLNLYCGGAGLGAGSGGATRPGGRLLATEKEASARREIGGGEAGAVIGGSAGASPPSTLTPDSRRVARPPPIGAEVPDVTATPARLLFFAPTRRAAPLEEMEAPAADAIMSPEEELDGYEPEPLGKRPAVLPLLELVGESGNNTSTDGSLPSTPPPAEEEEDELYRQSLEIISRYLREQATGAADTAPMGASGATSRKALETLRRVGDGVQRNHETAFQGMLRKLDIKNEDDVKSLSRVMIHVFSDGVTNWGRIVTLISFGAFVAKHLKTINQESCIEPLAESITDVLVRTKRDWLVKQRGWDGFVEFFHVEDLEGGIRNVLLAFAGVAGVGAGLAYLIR
For that, 100-fold concentrated DMSO solutions were prepared by serial dilutions (1:3.4) of a 2 mM stock solution in a clear, 384-well microtiter plate (Greiner Bio-One, Frickenhausen, Germany). From there, 50 nl were transferred in a dark test plate (Greiner Bio-One, Frickenhausen, Germany). […] This was followed by a 10-minute incubation step at 22° C. for pre-equilibration of the putative complex between MBP-MCL-1 and the compounds.
The mixture was incubated in the dark for one hour at 22° C. and then overnight at 4° C.
The resulting data (ratio) were normalized, taking 0% inhibition as the mean value of control measurements (usually 32 data points) where all reagents were included. In this case 50 nl DMSO were used instead of compounds. […] IC50 values were determined by regression analysis based on a 4 parameter equation (minimum, maximum, IC50, Hill; Y=Max+(Min−Max)/(1+(X/IC50)^Hill) using the Screener Software (Genedata).

Data set [1] concerns SUDHL5. The data set can be described thus: Induction of caspase-3/7 activity (Assay 4), SUDHL5. Format: cell-based. The following applies: SUDHL5 cells. An outline of the steps:
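DLBCL cells treated with compounds for 3 hours at 37° C. Caspase-3/7 activity measured by Caspase-Glo 3/7 luminescence, with medium-only background subtracted.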

Data set [2] relates to SUDHL10. The experiment in a line: Induction of caspase-3/7 activity (Assay 4), SUDHL10. The data set is classed as cell-based. The following applies: SUDHL10 cells. An outline of the steps:
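Luminescent Caspase-Glo 3/7 read-out after a 3 h, 37 °C compound exposure of the DLBCL line SUDHL10. Values are background-corrected using medium-only wells.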

Data set [3] concerns SUDHL5. The data set can be described thus: Antiproliferation assay 7, SUDHL5. The data set is classed as cell-based. The conditions noted are these: SUDHL5 cells, CellTiter-Glo, read-out: Antiproli SUDHL5 IC50 (median). A digest of the protocol:
(§1)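 Plate cells in treatment and day 0 reference plates; read day 0 plate with CellTiter-Glo after 10 min; incubate treated plates 72 h at 37° C; read them identically.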

A further data set has as its system AMO-1. The data set can be described thus: Antiproliferation assay 7, AMO-1. Format: cell-based. The conditions noted are these: AMO-1 cells, CellTiter-Glo, read-out: Antiproli AMO-1 IC50 median. A digest of the protocol: as §1
In the next data set the test system is HMC-1-8. The experiment in a line: Antiproliferation assay 7, HMC-1-8. Format: cell-based. The conditions noted are these: HMC-1-8 cells, CellTiter-Glo, read-out: Antiproli HMC-1-8 IC50 median. The protocol: Assessment of the Anti-Proliferative Effect of Compounds in Different Cell Lines
The impact of compounds on the proliferation of different cell lines was assessed using the CellTiter-Glo® Luminescent Cell Viability reagent from Promega (G7573).
In parallel, cells were plated in a reference (day 0) plate for time zero determination.
Rim wells were excluded. The cells were incubated for 72 hours in a humidified incubator at 37° C. The day 0 plate was measured by adding 30 μL/well of CTG solution (CellTiter-Glo® Luminescent Cell Viability reagent, Promega G7573) to time zero wells in the reference plate followed by a 10 minutes incubation and luminescence reading at 0.1 ms. using the PHERAstar FS microplate reader (BMG Labtech).
After 72 hours incubation, the treated plates were measured in the same way as the day 0 plate mentioned above.

The subject of data set [4] is SUDHL5. The data set can be described thus: Induction of cytotoxicity (Assay 6), SUDHL5.
The test system of data set [5] is SUDHL10. The experiment in a line: Induction of cytotoxicity (Assay 6), SUDHL10.
A further data set concerns MV-4-11. The experiment in a line: Antiproliferation assay 7, MV-4-11. The data set is classed as cell-based. The following applies: MV-4-11 cells, CellTiter-Glo, read-out: Antiproli MV-4-11 IC50 median. A digest of the protocol: as §1
Setting [6] is: 3 hours, Caspase-Glo 3/7, read-out: Caspase SUDHL5 EC50 (median).
The mark [7] stands for this setting: 3 hours, Caspase-Glo 3/7, read-out: Caspase SUDHL10 EC50 (median).
Where [8] appears, read: read-out: Cytotox SUDHL5 IC50 (median), SUDHL5 cells, 5 hours, CellTiter-Glo.
The mark [9] stands for this setting: read-out: Cytotox SUDHL10 IC50 (median), SUDHL10 cells, 5 hours, CellTiter-Glo.
Where [10] appears, read: Homo sapiens, SU-DHL-5, 3 h, Caspase-Glo 3/7, read-out: Caspase SUDHL5 EC50 (median).
The mark [11] stands for this setting: Homo sapiens, SU-DHL10, 3 h, Caspase-Glo 3/7, read-out: Caspase SUDHL10 EC50 (median).
[12] abbreviates: Homo sapiens, SU-DHL-5, 5 h, read-out: Cytotox SUDHL5 IC50 (median), SUDHL5 cells, 5 hours, CellTiter-Glo.
The mark [13] stands for this setting: Homo sapiens, SU-DHL10, 5 h, read-out: Cytotox SUDHL10 IC50 (median), SUDHL10 cells, 5 hours, CellTiter-Glo.

For `Cc1c2c(nn1CCCN1CCN(C)CC1)COCCCCn1c(C(=O)O)c(CCCOc3cccc4ccccc34)c3ccc(Cl)c-2c31` (single isomer, unassigned; enantiomer 2) [Example 50, (−)-4-chloro-3-methyl-2-[3-(4-methylpiperazin-1-yl)propyl]-7-{3-[(naphthalen-1-yl)oxy]propyl}-2,10,11,12,13,15-hexahydropyrazolo[4′,3′:9,10][1,6]oxazacycloundecino[8,7,6-hi]indole-8-carboxylic Acid (Enantiomer 2)], the IC50 turned out to be 15 nM at MCL-1; 6700 nM in the data set on SUDHL5 [3] (72 hours); 13300 nM in the data set with AMO-1 (72 hours); 12400 nM in the data set on HMC-1-8 (72 hours); 8400 nM in the data set with SUDHL5 [4] (setting [8]); 8600 nM in the data set on SUDHL10 [5] (setting [9]). The EC50 in the data set on SUDHL5 [1] (setting [6]) was 13000 nM; in the data set with SUDHL10 [2] (setting [7]) it was 12000 nM.
Consider `CCc1c2c(nn1C)N(CCC1CCOCC1)CCCCCn1c(C(=O)O)c(CCCOc3cccc4cc(F)ccc34)c3ccc(Cl)c-2c31` (racemic) [Example 80, (rac)-4-chloro-3-ethyl-7-{3-[(6-fluoronaphthalen-1-yl)oxy]propyl}-2-methyl-15-[2-(oxan-4-yl)ethyl]-10,11,12,13,14,15-hexahydro-2H-pyrazolo[4′,3′:4,5][1,6]diazacycloundecino[3,2,1-hi]indole-8-carboxylic Acid], for which the IC50 at MCL-1 turned out to be 2 nM; in the data set on SUDHL5 [3] (Homo sapiens, SU-DHL-5, 72 h) it was 410 nM; in the data set with AMO-1 (Homo sapiens, AMO1, 72 h) it was 270 nM; with HMC-1-8 (72 h) it was 4000 nM; with SUDHL5 [4] (setting [12]) it was 500 nM; in the data set with SUDHL10 [5] (setting [13]) it was 530 nM. Further, the EC50 with SUDHL5 [1] (setting [10]) came to 400 nM; in the data set with SUDHL10 [2] (setting [11]), 600 nM.
For `Cc1c2c(nn1C)COCC1CC1Cn1c(C(=O)O)c(CCCOc3cccc4ccccc34)c3ccc(Cl)c-2c31` (single isomer, unassigned; stereoisomer 2) [Example 66, (9aR,10aS or 9aS, 10aR)-3-chloro-4,5-dimethyl-14-{3-[(naphthalen-1-yl)oxy]propyl}-5,7,9a, 10,10a, 11-hexahydro-9H-cyclopropa[3,4]pyrazolo[4′,3′:9,10][1,6]oxazacycloundecino-[8,7,6-hi]indole-13-carboxylic Acid—Stereoisomer 2], the IC50 at MCL-1 amounted to 1.7 nM; with AMO-1 (72 hours), 1520 nM; with SUDHL5 [4] (setting [8]) it was 910 nM; with SUDHL10 [5] (setting [9]) it was 1400 nM. Also, the EC50 in the data set on SUDHL5 [1] (setting [6]) was 550 nM; with SUDHL10 [2] (setting [7]) it was 3500 nM.
`Cc1c2c(nn1C)COCCCCn1c(C(=O)O)c(CCCOc3cccc4cc(F)ccc34)c3ccc(Cl)c-2c31` (single isomer, unassigned; enantiomer 1) [Example 16, (−)-4-chloro-7-{3-[(6-fluoronaphthalen-1-yl)oxy]propyl}-2,3-dimethyl-2,10,11,12,13,15-hexahydropyrazolo[4′,3′:9,10][1,6]oxazacycloundecino[8,7,6-hi]indole-8-carboxylic Acid (Enantiomer 1)]: the EC50 worked out at 150 nM with SUDHL5 [1] (setting [10]) and 380 nM in the data set on SUDHL10 [2] (setting [11]). Moreover, the IC50 in the data set on SUDHL5 [3] (Homo sapiens, SU-DHL-5, 72 h) came out at 210 nM; in the data set with MV-4-11 (Homo sapiens, MV4-11, 72 h), 524 nM; in the data set with AMO-1 (Homo sapiens, AMO1, 72 h), 519 nM; in the data set on HMC-1-8 (72 h) it was 1250 nM; in the data set with SUDHL5 [4] (setting [12]), 220 nM; in the data set on SUDHL10 [5] (setting [13]) it was 660 nM.
For the molecule `Cc1c2c(nn1C)CN(C)CCCCn1c(C(=O)O)c(CCCOc3cccc4cc(F)ccc34)c3ccc(Cl)c-2c31` (single isomer, unassigned; enantiomer 2) [Example 32, (−)-4-chloro-7-{3-[(6-fluoronaphthalen-1-yl)oxy]propyl}-2,3,14-trimethyl-10,11,12,13,14,15-hexahydro-2H-pyrazolo[3′,4′:8,9][1,6]diazacycloundecino[10,11,1-hi]indole-8-carboxylic acid-N-ethylethanamine Salt (Enantiomer 2)], the IC50 on MCL-1 stood at 26 nM; in the data set on SUDHL5 [3] (72 hours), 6000 nM; in the data set on MV-4-11 (72 hours), 14000 nM; in the data set on AMO-1 (72 hours), 19600 nM; in the data set with SUDHL5 [4] (setting [8]) it was 9300 nM; in the data set with SUDHL10 [5] (setting [9]), 14000 nM. For the same molecule, the EC50 at SUDHL5 [1] (setting [6]) is 11000 nM; on SUDHL10 [2] (setting [7]) it was 25000 nM.
As to `Cc1c2c(nn1C)OCCCCCn1c(C(=O)O)c(CCCOc3cccc4cc(F)ccc34)c3ccc(Cl)c-2c31` (single isomer, unassigned; enantiomer 1) [Example 84, 4-chloro-7-{3-[(6-fluoronaphthalen-1-yl)oxy]propyl}-2,3-dimethyl-11,12,13,14-tetrahydro-2H,10H-pyrazolo[3′,4′:2,3][1,6]oxazacycloundecino[4,5,6-hi]indole-8-carboxylic Acid—Enantiomer 1], the IC50 on MCL-1 was 1.9 nM; with SUDHL5 [3] (Homo sapiens, SU-DHL-5, 72 h) it was 1300 nM; with AMO-1 (Homo sapiens, AMO1, 72 h) it was 230 nM; with HMC-1-8 (72 h) it was 12000 nM; with SUDHL5 [4] (setting [12]) it was 1100 nM; in the data set on SUDHL10 [5] (setting [13]), 1500 nM. The values for the EC50 in the data set with SUDHL5 [1] (setting [10]) and in the data set on SUDHL10 [2] (setting [11]) were 1000 nM and 1300 nM, respectively.
With `Cc1c2c(nn1CCCN1CCN(C)CC1)COCCCCn1c(C(=O)O)c(CCCOc3cccc4ccccc34)c3ccc(Cl)c-2c31` (racemic) [Example 48, (rac)-4-chloro-3-methyl-2-[3-(4-methylpiperazin-1-yl)propyl]-7-{3-[(naphthalen-1-yl)oxy]propyl}-2,10,11,12,13,15-hexahydropyrazolo[4′,3′:9,10][1,6]oxazacycloundecino[8,7,6-hi]indole-8-carboxylic Acid], the IC50 came to 1.7 nM at MCL-1; 570 nM in the data set on SUDHL5 [3] (Homo sapiens, SU-DHL-5, 72 h); 918 nM in the data set with MV-4-11 (Homo sapiens, MV4-11, 72 h); 1490 nM with AMO-1 (Homo sapiens, AMO1, 72 h); 590 nM in the data set on SUDHL5 [4] (setting [12]); 1000 nM in the data set on SUDHL10 [5] (setting [13]). For the same molecule, the EC50 with SUDHL5 [1] (setting [10]) and in the data set on SUDHL10 [2] (setting [11]) was 590 nM in each case.
For the molecule `CCc1nn(CCN2CCOCC2)c2c1-c1c(Cl)ccc3c(CCCOc4cccc5ccccc45)c(C(=O)O)n(c13)C/C=C\CN(C)C2` (single isomer, unassigned; enantiomer 1) [Example 43, (11Z)-4-chloro-3-ethyl-14-methyl-1-[2-(morpholin-4-yl)ethyl]-7-{3-[(naphthalen-1-yl)oxy]propyl}-10,13,14,15-tetrahydro-1H-pyrazolo[3′,4′:8,9][1,6]diazacycloundecino[10,11,1-hi]indole-8-carboxylic Acid-Ammonia Salt (Enantiomer 1)], the EC50 in the data set with SUDHL5 [1] (setting [6]) turned out to be 620 nM; in the data set with SUDHL10 [2] (setting [7]), 1600 nM. The IC50 with SUDHL5 [3] (72 hours) was determined as 950 nM; with MV-4-11 (72 hours) it was 1380 nM; in the data set with AMO-1 (72 hours), 1130 nM; in the data set on HMC-1-8 (72 h), 2060 nM; with SUDHL5 [4] (setting [8]) it was 700 nM; in the data set on SUDHL10 [5] (setting [9]), 1200 nM.
